According to paper PMC9719525, “Design of MMP-1 inhibitors via SAR transfer and experimental validation” (Scientific Reports, 2022):

Experiments:
[1] = target: T1, matrix metalloproteinase 1 (MMP-1) (Homo sapiens, UniProt P03956); assay: colorimetric MMP-1 enzyme assay; compound previously reported (ref […]), resynthesized here; assay type: biochemical; settings: cited from earlier work
T1 construct: gene MMP1
T1 sequence (P03956 100-469): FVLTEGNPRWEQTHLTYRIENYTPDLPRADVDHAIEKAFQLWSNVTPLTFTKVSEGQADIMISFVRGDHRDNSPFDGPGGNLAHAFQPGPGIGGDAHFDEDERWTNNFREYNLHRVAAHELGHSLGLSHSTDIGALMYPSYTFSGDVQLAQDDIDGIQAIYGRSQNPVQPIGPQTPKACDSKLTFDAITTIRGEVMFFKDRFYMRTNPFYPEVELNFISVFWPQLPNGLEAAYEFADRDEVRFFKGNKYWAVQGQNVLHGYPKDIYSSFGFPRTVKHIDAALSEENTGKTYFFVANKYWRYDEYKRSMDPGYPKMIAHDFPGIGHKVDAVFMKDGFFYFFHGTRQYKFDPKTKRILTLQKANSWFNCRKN

[2] = target: T1, matrix metalloproteinase 1 (MMP-1); assay: colorimetric MMP-1 enzyme assay (ENZ BML-AK404-0001 kit, A412nm); assay type: biochemical

Row | SMILES | IC50 ([2]; read-out: IC50 (μM)^a) [µM] | further results
1 | C[C@H](C(=O)NO)N1CC[C@@](C)(c2ccc(C(F)(F)F)cc2)C1=O [compound 4] | – | IC50 [1]: 0.12 ± 0.01 µM
2 | C[C@H](C(=O)NO)N1CC[C@@](C)(c2ccc(Cl)cc2)C1=O [compound 6, (R)-N-hydroxy-2-((S)-3-(4-chlorophenyl)-3-methyl-2-oxopyrrolidin-1-yl)propenamide] | 0.034 ± 0.026 | –
3 | COc1ccc([C@]2(C)CCN([C@H](C)C(=O)NO)C2=O)cc1 [compound 5, (R)-N-hydroxy-2-((S)-3-(4-methoxyphenyl)-3-methyl-2-oxopyrrolidin-1-yl)propenamide] | – | IC50 [2]: 0.36 ± 0.04 µM
4 | Cc1ccc([C@]2(C)CCN([C@H](C)C(=O)NO)C2=O)cc1 [compound 7, (R)-N-hydroxy-2-((S)-3-(p-tolyl)-3-methyl-2-oxopyrrolidin-1-yl)propenamide] | 0.5 ± 0.023 | –
